Test results taken from patent US20240300943A1, “NOVEL SALTS OF HETEROCYCLIC COMPOUND AS PROTEIN KINASE INHIBITOR AND USES THEREOF” (HK INNO.N CORPORATION, priority 2021, published 2024).

Experiments:
TYK2 = TYK2 (Homo sapiens, UniProt P29597); assay: ADP-Glo Tyk2 kinase assay; format: biochemical; conditions: read-out: IC50, In vitro enzyme TYK2
Description: 10 mM of Compound 1 was diluted in DMSO to prepare samples at five concentrations (5,000 nM, 500 nM, 50 nM, 5 nM, and 0.5 nM). 10 mM of ATP was diluted at 1/40 in 1× kinase buffer to make a preparation. 1 mg/mL of Poly (Glu4, Tyr1) peptide was used as a stock solution. 100 ng/μL of Tyk2 enzyme was diluted at ½ in 1× kinase buffer to make a preparation. 1 μL of ATP, 1 μL of Poly (Glu4, Tyr1) peptide, and 1 μL of Compound 1 prepared as above were mixed, after which 2 μL of Tyk2 enzyme was finally added and reacted at 30° C. for 40 minutes. At this time, a tube without […] enzyme was prepared for a blank and a tube without Compound 1 was prepared as a positive control group together (a final concentration of samples was 1,000 nM, 100 nM, 10 nM, 1 nM, and 0.1 nM).
Then, 5 μL of ADP-glo was added to each tube and reacted at 30° C. for 40 minutes, after which 10 μL of kinase detection reagent was added thereto and reacted at room temperature for 15 minutes. After 18 μL of the reactant was transferred to a 384 well plate, luminescence was measured using a plate reader.

JAK1, 3 = assay: In vitro cell assay, JAK1, 3 (NK-92 cells, IL-2); format: cell-based; conditions: NK92, read-out: IC50, Cell Biology JAK1, 3
Description: In addition, NK-92 cell is a natural killer cell line, which grows in an IL-2-dependent way, and is derived from peripheral blood mononuclear cells, and thus is suitable for evaluating the activity of JAK1 and JAK3 by IL-2. Thus, in order to evaluate the activity of JAK1 and JAK3, NK-92 cells were prepared.
(§1) The test material was dissolved in DMSO, prepared at 10 mM, divided by 20 μL each, and stored at −20° C.
(§2) • EPO: 2000 U/0.5 mL of stock was divided by 50 μL each and stored under refrigeration. • IL-2: 200 μg/ml of stock was prepared, divided by 5 μL each, and stored, and then treated at 2 ng/ml. (IL-2 1 μg/ml=13000 U/ml) • IFN-alphaB2: […] of stock was diluted and used, and then treated to reach 30000 U/ml.
(§3) • UT-7/EPO cell assay: MEM-alpha (Gibco, cat #12561-056) was prepared to contain 5% FBS and 1% P/S before use. • NK-92 cell assay: A preparation was made to contain HBSS, 1% FBS and 1% P/S before use. • U2OS cell assay: A preparation was made to contain HBSS, 1% FBS and 1% P/S before use.
(§4) The cultured cells were centrifuged (1,000 rpm, 5 minutes) and washed with PBS. The size of cell lines and appropriate reaction concentration thereof were set and the cell lines were seeded in a 96-well plate at 1×10^5 to 10^6 cells/well (50 μL/well). […]

JAK1 = assay: Human whole blood assay, JAK1; format: cell-based; conditions: cytokine-induced STAT phosphorylation
Description: A stock solution of Compound 1 obtained according to Preparation Example 1 was diluted with distilled water and then serially diluted at ⅕ with 4% DMSO. 5 μL of test material was added to 100 μL of whole blood collected using a 1.7 mL eppendorf tube, mixed, and incubated at 37° C. for 45 minutes.
IL-6 (10 μg/ml) was diluted with 0.1% BSA/DW to reach 1 μg/mL each. 5 μL of IL-6 was added (at a final concentration of 50 ng/mL) and incubated at 37° C. for 15 minutes. At this time, 5 μL of DPBS was added as a non-stimulated control group. Lyse/fix buffer 5× was diluted 1× in distilled water and used. […]
For double staining of CD4 and pSTATI, anti-[…] and anti-pSTATI were mixed in a staining buffer and added to each of the samples. […] On the next day, the results were analyzed using FACSCanto II. […]
The numerical values analyzed by FlowJo were calculated to obtain IC50 values using GraphPad Prism 5 software (product name).
No treatment response (NTR) was set as a reference, and the degree of the phosphorylation of STAT induced by cytokines was converted into a relative ratio (% control group). A dose-response plot was obtained for each concentration-dependent activity of each test material using GraphPad Prism (version 5.0) and ICso values were calculated.

JAK2 = JAK2 (Homo sapiens, UniProt O60674); assay: In vitro cell assay, JAK2 (STAT phosphorylation ELISA); format: cell-based; parameters: endogenous in cells; host or cells: UT-7/EPO (inferred); conditions: read-out: IC50, Cell Biology JAK2
Description: UT-7/EPO cell is an erythroleukemic cell line which expresses an EPO receptor, and is frequently used in many previous studies as a model to assess EPO-induced STAT5 phosphorylation mediated by JAK1 and JAK2 activity. Accordingly, in order to evaluate the activity of JAK1 and JAK2, UT-7/EPO cells were prepared.
as §1, §2, §3, §4

[1] = Measurement of water solubility; format: physicochemical; conditions: saturated solution shaken at room temperature for 24 hours
Description: A liquid phase was taken out of the solution and filtered using a 0.22 μm PVDF filter. The filtered liquid phase was diluted 10-fold for LC analysis.
LC analysis was performed by the following method.

Chain of JAK2 (O60674 whole entry, species assumed): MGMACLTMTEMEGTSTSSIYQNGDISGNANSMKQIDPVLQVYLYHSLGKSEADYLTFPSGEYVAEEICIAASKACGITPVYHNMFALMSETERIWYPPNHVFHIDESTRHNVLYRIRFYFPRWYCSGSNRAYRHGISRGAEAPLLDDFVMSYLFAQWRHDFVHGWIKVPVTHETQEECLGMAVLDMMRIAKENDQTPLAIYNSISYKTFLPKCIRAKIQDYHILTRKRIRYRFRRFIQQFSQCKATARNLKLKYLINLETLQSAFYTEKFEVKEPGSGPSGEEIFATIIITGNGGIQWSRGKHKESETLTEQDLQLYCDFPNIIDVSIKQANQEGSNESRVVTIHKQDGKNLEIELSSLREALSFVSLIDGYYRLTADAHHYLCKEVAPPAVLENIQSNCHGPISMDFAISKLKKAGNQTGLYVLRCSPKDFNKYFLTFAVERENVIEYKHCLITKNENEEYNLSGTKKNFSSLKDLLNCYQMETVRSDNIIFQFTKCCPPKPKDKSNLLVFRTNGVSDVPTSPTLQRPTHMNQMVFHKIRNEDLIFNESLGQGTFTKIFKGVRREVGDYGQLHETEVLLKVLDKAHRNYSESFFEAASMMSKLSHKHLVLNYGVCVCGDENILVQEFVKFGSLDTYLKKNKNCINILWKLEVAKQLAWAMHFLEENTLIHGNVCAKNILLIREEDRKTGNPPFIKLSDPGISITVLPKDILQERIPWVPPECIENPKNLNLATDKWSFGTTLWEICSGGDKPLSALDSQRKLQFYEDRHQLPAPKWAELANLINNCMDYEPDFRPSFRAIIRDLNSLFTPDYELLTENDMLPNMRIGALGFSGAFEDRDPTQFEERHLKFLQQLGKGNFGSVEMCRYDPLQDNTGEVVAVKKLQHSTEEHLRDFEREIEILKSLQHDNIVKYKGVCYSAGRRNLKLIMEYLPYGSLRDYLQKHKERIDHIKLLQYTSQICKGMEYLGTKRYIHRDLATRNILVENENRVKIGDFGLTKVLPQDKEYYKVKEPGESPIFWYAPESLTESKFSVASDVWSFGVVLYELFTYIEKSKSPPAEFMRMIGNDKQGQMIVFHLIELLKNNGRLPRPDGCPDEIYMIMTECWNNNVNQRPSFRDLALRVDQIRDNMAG
Chain of TYK2 (P29597 whole entry, species assumed): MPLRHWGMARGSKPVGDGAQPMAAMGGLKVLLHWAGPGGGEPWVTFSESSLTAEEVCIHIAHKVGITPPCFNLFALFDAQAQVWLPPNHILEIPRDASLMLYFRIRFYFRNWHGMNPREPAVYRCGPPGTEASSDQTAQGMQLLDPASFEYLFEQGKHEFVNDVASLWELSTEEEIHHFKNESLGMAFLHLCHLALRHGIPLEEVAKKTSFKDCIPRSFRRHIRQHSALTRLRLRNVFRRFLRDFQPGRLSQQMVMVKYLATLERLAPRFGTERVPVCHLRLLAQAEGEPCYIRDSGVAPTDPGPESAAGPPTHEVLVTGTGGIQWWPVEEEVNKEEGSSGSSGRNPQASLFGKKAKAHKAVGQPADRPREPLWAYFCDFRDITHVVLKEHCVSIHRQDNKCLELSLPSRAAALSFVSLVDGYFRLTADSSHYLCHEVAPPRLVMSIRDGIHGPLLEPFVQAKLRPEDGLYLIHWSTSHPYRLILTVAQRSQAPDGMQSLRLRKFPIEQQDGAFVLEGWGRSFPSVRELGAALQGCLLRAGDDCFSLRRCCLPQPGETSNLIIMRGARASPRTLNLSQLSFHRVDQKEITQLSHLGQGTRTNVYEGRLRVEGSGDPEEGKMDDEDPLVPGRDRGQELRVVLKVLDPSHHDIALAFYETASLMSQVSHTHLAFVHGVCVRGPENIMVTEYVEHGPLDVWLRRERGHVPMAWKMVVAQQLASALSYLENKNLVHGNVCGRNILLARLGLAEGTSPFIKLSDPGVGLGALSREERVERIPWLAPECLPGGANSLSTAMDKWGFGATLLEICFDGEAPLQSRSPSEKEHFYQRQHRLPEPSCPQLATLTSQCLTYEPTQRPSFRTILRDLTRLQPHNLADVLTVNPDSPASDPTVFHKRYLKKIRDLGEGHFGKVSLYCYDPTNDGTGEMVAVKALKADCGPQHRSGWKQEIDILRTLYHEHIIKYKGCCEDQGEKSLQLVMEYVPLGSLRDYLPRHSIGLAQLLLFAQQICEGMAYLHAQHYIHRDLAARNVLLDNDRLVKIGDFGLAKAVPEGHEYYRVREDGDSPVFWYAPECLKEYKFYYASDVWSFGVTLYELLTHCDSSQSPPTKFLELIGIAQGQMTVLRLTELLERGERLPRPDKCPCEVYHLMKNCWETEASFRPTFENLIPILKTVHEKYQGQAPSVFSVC

Row | IC50 (TYK2) | IC50 (JAK1, 3) | IC50 (JAK1) | IC50 (JAK2) | Water solubility [1] | SMILES
1 | 22 nM | 163 nM | 70 nM | 656 nM |  | C[C@@H]1CN(C(=O)CC#N)CC=C1c1cc(NC(=O)C2CC2)nc2[nH]ccc12 [Compound 1, (S)—N-(4-(1-(2-cyanoacetyl)-3-methyl-1,2,3,6-tetrahydropyridin-4-yl)-1H-pyrrolo[2,3-b]pyridin-6-yl)cyclopropanecarboxamide]
2 |  |  |  |  | 3900 µg/mL | C[C@@H]1CN(C(=O)CC#N)CC=C1c1cc(NC(=O)C2CC2)nc2[nH]ccc12 [Example 3, (S)—N-(4-(1-(2-cyanoacetyl)-3-methyl-1,2,3,6-tetrahydropyridin-4-yl)-1H-pyrrolo[2,3-b]pyridin-6-yl)cyclopropanecarboxamide]
